Columns and labels:
p21 = assay: Western blot analysis, p21 expression; assay type: cell-based; conditions: MIAPaCa-2 cells
Protocol: (§1) Western analysis was performed via established protocols (Gao, J. and D. R. Richardson (2001). Blood 98: 842-50). The primary antibodies used were against NDRG1 (Abcam; UK), p21, cyclin D1, transferrin receptor 1 (TfR1; Santa Cruz, CA, USA) and β-actin (Sigma-Aldrich), with secondary HRP-conjugated goat and mouse antibodies (Sigma-Aldrich).
(§2) Dp4cycH4mT was examined to determine whether it could up-regulate NDRG-1 expression. To further evaluate the effect of the chelator Dp4cycH4mT on other key molecules involved in cell cycle progression, the expression of the cyclin-dependent kinase inhibitor, p21, as well as cyclin D1 in MIAPaCa-2 cells was also examined.

methemoglobin (metHb) = assay: metHb formation in vivo; parameters: species or system C57BL6 mice; conditions: 6 mg/kg intravenously, blood taken after 30 min
Protocol: FIG. 13. Effect of thiosemicarbazone chelators on metHb-formation in vivo. MetHb after Dp44mT, Triapine® or Dp4cycH4mT treatment in vivo at a dose of 6 mg/kg administered intravenously via the tail vein. Mice in the control group were treated with vehicle alone. At 30 minutes post-administration, whole blood was collected for determination of metHb levels.
The levels of metHb and metMb in RBC lysates were determined using a Shimadzu UV-Vis spectrophotometer (UV-1800; Shimadzu Corporation, Kyoto, Japan) at 577 nm and 630 nm for metHb and metMb in accordance with published methods (Winterbourn CC and Carrell R W (1977). Biochem J 165: 141-148).
C57BL6 mice (7-8 weeks-old) were used under a protocol approved by the university of Sydney Animal Ethics Committee. Dp44mT, Triapine® or Dp4cycH4mT (all at 6 mg/kg) were dissolved in 30% propylene glycol/saline and administered iv via the tail vein. Subsequently, 30 min after administration, mice were anesthetized with isoflurane and blood samples obtained by cardiac puncture. Blood samples were lysed with 2.5 volumes of ultrapure water for metHb estimation. Mice were sacrificed with isoflurane, the heart exhaustively perfused with HBSS and Mb isolated.

[1] = test system: SK-N-MC neuroepithelioma cell line; assay: MTT anti-proliferative assay in SK-N-MC cells; assay type: cell-based, human; conditions: Homo sapiens, 72 h at 37° C., mean±SD (3 experiments)
Protocol: The cells were maintained in minimum essential media (MEM; Invitrogen, CA, USA) which contained 10% fetal calf serum (FCS; JRH Biosciences, Kansas, USA), 1% non-essential amino acids (Gibco, Victoria, Australia), 1% penicillin/streptomycin/glutamine (Gibco, VIC, Australia) and fungizone ([…]; Squibb Pharmaceuticals, Montreal, Canada).
The ability of the compounds to inhibit cellular proliferation was assessed initially in SK-N-MC cells by the MTT assay.
Table 1. […] Cells were seed and allowed to attach to wells for 24 h and then incubated for 72 h at 37° C. with control medium or the chelators.

NDRG1 = assay: Western blot analysis, NDRG1 expression; assay type: cell-based; conditions: MIAPaCa-2 cells
Protocol: as §1, §2

[2] = test system: CAPAN-2 pancreatic cancer cells; assay: MTT proliferation assay, CAPAN-2; assay type: cell-based; conditions: Homo sapiens; CAPAN-2, MTT, 72 h
Protocol: (§3) The pancreatic cancer cell lines, including MIAPaCa-2, PANC 1, CAPAN-2 and CFPAC-1 were a generous gift from Prof. Andrew Biankin (Garvan Institute, NSW, Australia). The MIAPaCa-2, PANC 1 and CFPAC-1 cell lines were grown in DMEM medium (Invitrogen) and CAPAN-2 cells were grown in McCoy's medium (Invitrogen). All media was supplemented with 10% (v/v) fetal calf serum (Invitrogen), 1% (v/v) non-essential amino acids (Invitrogen), 1% (v/v) sodium pyruvate (Invitrogen), 2 mM L-glutamine (Invitrogen), 100 μg/mL of streptomycin (Invitrogen), 100 U/ml penicillin (Invitrogen), and 0.28 μg/mL of fungizone.
(§4) To further examine the spectrum of anti-proliferative activity, Dp4cycH4mT was tested against pancreatic cancer in vitro, performing MTT proliferation assays with PANC 1, MIAPaCa-2, CFPAC-1 and CAPAN-2 pancreatic cancer cells. As a comparison, currently used treatments for pancreatic cancer including gemcitabine and 5-fluorouracil were also tested. The iron chelator, DFO, was included as a positive control.
(§5) Table 2A. Anti-proliferative activity of Dp4cycH4mT against pancreatic cancer cell lines. Growth and antiproliferative activity IC50 (μM) values of Dp4cycH4mT in a variety of pancreatic cell lines and in comparison to DFO and the clinically used drugs gemcitabine and 5-fluorouracil as determined by the MTT assay. Cells were seeded and allowed to attach to wells for 24 h and then incubated for 72 h at 37° C. with control medium or the chelators. Results are mean±SD (3 experiments).
as §5, with “2B.” for “2A.”, “IC90” for “Growth and antiproliferative activity IC50”

[3] = test system: pancreatic cancer cell lines; assay: MTT proliferation assays, pancreatic cancer cell line panel (comparison of IC50); assay type: cell-based; conditions: in 2 out of the 4 cell types
Protocol: as §3, §4
Table 2A. Anti-proliferative activity of Dp4cycH4mT against pancreatic cancer cell lines. […]. Cells were seeded and allowed to attach to wells for 24 h and then incubated for 72 h at 37° C. with control medium or the chelators. Results are mean±SD (3 experiments).

cyclin D1 = assay: Western blot analysis, cyclin D1 levels; assay type: cell-based; conditions: MIAPaCa-2 cells
Protocol: as §1, §2

[4] = test system: CFPAC-1 pancreatic cancer cells; assay: MTT proliferation assay, CFPAC-1; assay type: cell-based; conditions: Homo sapiens; CFPAC-1, MTT, 72 h
Protocol: as §3, §4, §5
as §5, with “2B.” for “2A.”, “IC90” for “Growth and antiproliferative activity IC50”

[5] = test system: PANC 1 human pancreatic carcinoma; assay: PANC 1 xenograft in nude mice: tumour growth; assay type: in vivo, nude mice (BALBc nu/nu); conditions: Dp4cycH4mT 5 mg/kg/day i.v.
Protocol: FIG. 5). […] (5 mg/kg) or vehicle control.

[6] = test system: PANC 1 pancreatic cancer cells; assay: MTT proliferation assay, PANC 1; assay type: cell-based; conditions: Homo sapiens; PANC 1, MTT, 72 h
Protocol: as §3, §4, §5
as §5, with “2B.” for “2A.”, “IC90” for “Growth and antiproliferative activity IC50”

[7] = PANC 1 xenograft study: body and organ weights, haematology, histopathology

## CN(C(=S)NN=C(c1ccccn1)c1ccccn1)C1CCCCC1 [Dp4cycH4mT, di-2-pyridylketone 4-cyclohexyl-4-methyl-3-thiosemicarbazone]
p21
  p21 expression: markedly (p<0.05) increasing
Methemoglobin (metHb)
  metHb (% of total Hb): comparable to the control
[1]
  IC50: 13 nM
NDRG1
  NDRG1 expression: significantly (p<0.01) up-regulated
[2]
  IC50: 40 ± 8 nM
  IC90: > 5000 nM
[3]
  IC50 fold lower compared to 5-fluorouracil: ≥ 1000 fold
  IC50 fold lower compared to gemcitabine: at least 100 fold
Cyclin D1
  cyclin D1 levels: significantly (p<0.05) reduced
[4]
  IC50: 400 ± 200 nM
  IC90: 5400 ± 1100 nM
[5]
  Tumour weight: 0.04 ± 0.01 g
[6]
  IC50: 50 ± 2 nM
  IC90: > 5000 nM
[7]; Dp4cycH4mT 5 mg/kg/day
  HCT: 0.41 ± 0.01
  Hb: 131.88 ± 4.31 g/L
  Platelets: 1283 ± 160 10^9/L
  RBC: 9.46 ± 0.31 × 10^12/L
  Reticulocytes: 0.77 ± 0.08 × 10^12/L
  WBC: 3.5 ± 0.34 × 10^9/L
[7]; Dp4cycH4mT 5 mg/kg/day i.v.
  Body weight loss (% initial weight): 88.0 ± 6.5 % initial weight
  Brain weight: 0.30 ± 0.01 g
  Heart weight: 0.09 ± 0.01 g
  Kidney weight: 0.17 ± 0.02 g
  Liver weight: 0.80 ± 0.03 g
  Spleen weight: 0.08 ± 0.01 g
